Source: paper PMC11410943 (Nature Communications, 2024)
Values after ≈ are worked out from the molar mass of the structure shown.

Assays:
Escherichia coli = experiment: MIC; conditions: Escherichia coli
Pseudomonas aeruginosa = experiment: MIC; conditions: Pseudomonas aeruginosa
Klebsiella pneumoniae = experiment: MIC; conditions: Klebsiella pneumoniae
Acinetobacter baumannii = experiment: MIC; conditions: Acinetobacter baumannii, IHMA/CARB-X MDR clinical isolates 2019, N=298
Enterobacter cloacae = experiment: MIC; conditions: Enterobacter cloacae, IHMA/CARB-X MDR clinical isolates 2019, N=152
Citrobacter spp. = experiment: MIC; conditions: Citrobacter
Proteus spp. = experiment: MIC
Morganella morganii = experiment: MIC; conditions: Morganella morganii, IHMA/CARB-X MDR clinical isolates 2019, N=42
Neisseria gonorrhoeae = experiment: MIC; conditions: IHMA/CARB-X isolates 1997 to 2021, N=90
E. coli gyrase = E. coli gyrase (Escherichia coli, UniProt P0AES4); experiment: E. coli gyrase supercoiling inhibition; assay type: biochemical
E. coli topoisomerase IV = E. coli topoisomerase IV (Escherichia coli, UniProt P0AFI2); experiment: E. coli topoisomerase IV decatenation inhibition; assay type: biochemical
[1] = tested on: MDR Gram-negative and Gram-positive pathogens; experiment: MIC
hERG K+ channel = hERG K+ channel (Homo sapiens, UniProt Q12809); experiment: hERG automated patch-clamp; assay type: cell-based
Chain of hERG K+ channel (Q12809 whole entry): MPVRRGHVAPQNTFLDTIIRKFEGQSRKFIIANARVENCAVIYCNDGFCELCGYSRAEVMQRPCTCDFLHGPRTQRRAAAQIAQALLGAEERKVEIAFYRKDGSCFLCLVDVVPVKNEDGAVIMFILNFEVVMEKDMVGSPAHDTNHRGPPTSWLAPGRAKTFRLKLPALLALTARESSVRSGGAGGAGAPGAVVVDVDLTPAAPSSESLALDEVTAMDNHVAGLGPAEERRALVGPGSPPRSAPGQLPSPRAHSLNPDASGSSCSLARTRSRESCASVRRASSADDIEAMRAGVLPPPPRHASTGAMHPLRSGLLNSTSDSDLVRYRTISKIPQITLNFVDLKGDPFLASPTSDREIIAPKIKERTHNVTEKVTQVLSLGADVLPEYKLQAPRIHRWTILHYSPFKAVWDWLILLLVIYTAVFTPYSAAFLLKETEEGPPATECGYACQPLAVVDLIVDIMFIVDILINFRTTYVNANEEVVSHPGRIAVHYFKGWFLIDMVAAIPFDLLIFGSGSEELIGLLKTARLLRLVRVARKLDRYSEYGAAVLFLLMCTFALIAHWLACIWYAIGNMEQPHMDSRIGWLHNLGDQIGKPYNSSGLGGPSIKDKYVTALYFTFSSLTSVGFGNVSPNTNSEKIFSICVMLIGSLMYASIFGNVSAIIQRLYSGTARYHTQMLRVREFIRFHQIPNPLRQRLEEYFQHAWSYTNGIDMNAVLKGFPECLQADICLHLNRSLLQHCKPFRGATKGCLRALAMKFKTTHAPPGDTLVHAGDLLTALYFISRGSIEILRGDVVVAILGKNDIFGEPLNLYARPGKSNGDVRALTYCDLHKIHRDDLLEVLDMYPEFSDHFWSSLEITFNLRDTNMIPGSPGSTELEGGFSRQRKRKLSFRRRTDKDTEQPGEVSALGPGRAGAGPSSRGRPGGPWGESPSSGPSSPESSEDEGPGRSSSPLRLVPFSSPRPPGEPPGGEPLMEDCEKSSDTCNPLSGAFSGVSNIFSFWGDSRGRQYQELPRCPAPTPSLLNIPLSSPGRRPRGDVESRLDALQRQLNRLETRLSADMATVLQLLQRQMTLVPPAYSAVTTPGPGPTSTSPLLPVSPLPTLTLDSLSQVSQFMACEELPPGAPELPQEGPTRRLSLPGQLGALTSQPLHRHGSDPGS

Chain of E. coli topoisomerase IV (P0AFI2 whole entry): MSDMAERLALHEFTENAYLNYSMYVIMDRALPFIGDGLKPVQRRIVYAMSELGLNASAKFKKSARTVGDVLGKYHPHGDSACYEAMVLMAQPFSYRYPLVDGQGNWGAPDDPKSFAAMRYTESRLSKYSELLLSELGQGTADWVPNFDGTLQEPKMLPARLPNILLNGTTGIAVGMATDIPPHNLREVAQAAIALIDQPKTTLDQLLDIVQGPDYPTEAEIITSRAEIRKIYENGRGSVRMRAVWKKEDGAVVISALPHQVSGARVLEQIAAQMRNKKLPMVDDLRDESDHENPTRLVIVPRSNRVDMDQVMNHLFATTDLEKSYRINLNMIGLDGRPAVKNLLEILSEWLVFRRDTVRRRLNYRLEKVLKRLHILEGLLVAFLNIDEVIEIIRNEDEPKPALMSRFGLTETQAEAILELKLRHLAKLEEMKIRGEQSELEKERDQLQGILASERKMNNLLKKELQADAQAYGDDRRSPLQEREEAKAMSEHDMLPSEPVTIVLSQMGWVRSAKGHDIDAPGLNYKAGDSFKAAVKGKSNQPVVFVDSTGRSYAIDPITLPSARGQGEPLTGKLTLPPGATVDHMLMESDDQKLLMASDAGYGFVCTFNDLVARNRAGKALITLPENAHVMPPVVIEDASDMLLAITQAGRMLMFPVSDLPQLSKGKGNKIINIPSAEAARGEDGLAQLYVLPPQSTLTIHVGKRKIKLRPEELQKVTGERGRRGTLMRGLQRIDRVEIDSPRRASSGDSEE
Chain of E. coli topoisomerase IV (P20083 whole entry partner): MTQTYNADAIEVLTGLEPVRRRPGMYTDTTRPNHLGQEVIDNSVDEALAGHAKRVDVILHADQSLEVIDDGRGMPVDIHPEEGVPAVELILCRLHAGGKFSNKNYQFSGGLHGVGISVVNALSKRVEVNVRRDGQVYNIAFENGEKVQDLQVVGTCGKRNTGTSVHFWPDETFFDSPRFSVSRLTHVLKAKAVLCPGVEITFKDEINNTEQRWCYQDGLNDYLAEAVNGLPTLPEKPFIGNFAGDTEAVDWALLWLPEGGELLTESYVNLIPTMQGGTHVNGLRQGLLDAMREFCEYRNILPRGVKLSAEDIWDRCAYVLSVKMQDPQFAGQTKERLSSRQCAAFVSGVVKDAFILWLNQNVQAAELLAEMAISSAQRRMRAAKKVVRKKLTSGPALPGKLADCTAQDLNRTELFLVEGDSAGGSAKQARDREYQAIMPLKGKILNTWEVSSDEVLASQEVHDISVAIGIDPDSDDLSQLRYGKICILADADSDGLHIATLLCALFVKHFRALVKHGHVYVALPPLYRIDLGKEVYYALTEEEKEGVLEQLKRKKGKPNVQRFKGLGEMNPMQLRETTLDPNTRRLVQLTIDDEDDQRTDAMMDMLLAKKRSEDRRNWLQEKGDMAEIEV
Chain of E. coli gyrase (P0AES4 whole entry): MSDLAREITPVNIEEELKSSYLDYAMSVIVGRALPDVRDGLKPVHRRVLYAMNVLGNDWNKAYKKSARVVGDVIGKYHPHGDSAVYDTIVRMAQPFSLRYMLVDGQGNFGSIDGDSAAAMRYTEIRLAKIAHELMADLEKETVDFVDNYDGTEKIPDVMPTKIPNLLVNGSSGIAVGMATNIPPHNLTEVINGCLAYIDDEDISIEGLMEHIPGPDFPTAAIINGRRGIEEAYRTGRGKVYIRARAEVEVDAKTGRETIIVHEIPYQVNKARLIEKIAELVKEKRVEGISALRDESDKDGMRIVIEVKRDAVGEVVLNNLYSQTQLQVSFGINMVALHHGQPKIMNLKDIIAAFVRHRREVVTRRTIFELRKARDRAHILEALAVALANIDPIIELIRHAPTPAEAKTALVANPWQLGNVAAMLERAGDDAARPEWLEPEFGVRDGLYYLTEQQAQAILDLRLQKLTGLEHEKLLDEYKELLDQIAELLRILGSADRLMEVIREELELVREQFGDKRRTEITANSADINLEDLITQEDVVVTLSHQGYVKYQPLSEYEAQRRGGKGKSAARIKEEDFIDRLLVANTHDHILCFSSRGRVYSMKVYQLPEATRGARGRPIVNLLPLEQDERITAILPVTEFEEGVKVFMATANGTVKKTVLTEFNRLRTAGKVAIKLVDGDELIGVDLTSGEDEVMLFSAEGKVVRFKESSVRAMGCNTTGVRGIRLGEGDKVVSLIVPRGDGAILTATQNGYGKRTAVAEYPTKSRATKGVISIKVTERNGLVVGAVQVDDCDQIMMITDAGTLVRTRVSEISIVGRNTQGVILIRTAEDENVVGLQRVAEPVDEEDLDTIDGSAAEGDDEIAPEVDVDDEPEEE

| Compound | MIC90 (Escherichia coli) [µg/mL] | MIC90 (Pseudomonas aeruginosa) [µg/mL] | MIC90 (Klebsiella pneumoniae) [µg/mL] | MIC90 (Acinetobacter baumannii) [µg/mL] | MIC90 (Enterobacter cloacae) [µg/mL] | MIC90 (Citrobacter spp.) [µg/mL] | MIC90 (Proteus spp.) [µg/mL] | MIC90 (Morganella morganii) [µg/mL] | other results |
| --- | --- | --- | --- | --- | --- | --- | --- | --- | --- |
| NCC[C@H](O)C(=O)N[C@@H]1C[C@H](N)[C@@H](O[C@H]2O[C@H](CN)[C@@H](O)[C@H](O)[C@H]2O)[C@H](O)[C@H]1O[C@H]1O[C@H](CO)[C@@H](O)[C@H](N)[C@H]1O [Amikacin] | 8 (≈ 13.7 µM) | 64 (≈ 109 µM) | 32 (≈ 54.6 µM) | > 64 | 4 (≈ 6.83 µM) | 4 (≈ 6.83 µM) | 4 (≈ 6.83 µM) | 8 (≈ 13.7 µM) |  |
| C[C@H]1[C@H](NC(=O)/C(=N\OC(C)(C)C(=O)O)c2csc(N)n2)C(=O)N1S(=O)(=O)O [Aztreonam] | > 64 | > 16 | > 64 |  |  | 64 (≈ 147 µM) | 0.5 (≈ 1.15 µM) | 16 (≈ 36.7 µM) |  |
| CO/N=C(\C(=O)N[C@@H]1C(=O)N2C(C(=O)[O-])=C(C[N+]3(C)CCCC3)CS[C@H]12)c1csc(N)n1 [Cefepime] | > 32 | > 32 | > 32 | > 32 |  | > 32 | 16 (≈ 33.3 µM) | > 32 |  |
| CC(C)(O/N=C(\C(=O)N[C@@H]1C(=O)N2C(C(=O)[O-])=C(C[N+]3(CCNC(=O)c4ccc(O)c(O)c4Cl)CCCC3)CS[C@H]12)c1csc(N)n1)C(=O)O [Cefiderocol] | 2 (≈ 2.66 µM) | 2 (≈ 2.66 µM) | 2 (≈ 2.66 µM) | 4 (≈ 5.32 µM) | 4 (≈ 5.32 µM) | 2 (≈ 2.66 µM) | 0.5 (≈ 0.665 µM) | 1 (≈ 1.33 µM) |  |
| COCC1=C(C(=O)O)N2C(=O)[C@@H](NC(=O)/C(=N\OC)c3csc(N)n3)[C@H]2SC1 [Cefpodoxime] | > 32 |  | > 32 |  | 64 (≈ 150 µM) | > 32 | > 32 | > 32 |  |
| CC(C)(O/N=C(\C(=O)N[C@@H]1C(=O)N2C(C(=O)[O-])=C(C[n+]3ccccc3)CS[C@H]12)c1csc(N)n1)C(=O)O [Ceftazidime] | 64 (≈ 117 µM) | > 32 | > 64 | > 32 | 128 (≈ 234 µM) | > 64 | 2 (≈ 3.66 µM) | 16 (≈ 29.3 µM) |  |
| CO/N=C(\C(=O)N[C@@H]1C(=O)N2C(C(=O)O)=C(CSc3nc(=O)c(=O)[nH]n3C)CS[C@H]12)c1csc(N)n1 [Ceftriaxone] |  |  |  |  |  |  |  |  | MIC90 (Neisseria gonorrhoeae): 0.06 µg/mL (≈ 0.108 µM) |
| NCCCC1CN(c2ccc3c(n2)NC(=O)CO3)C(=O)O1 (stereo not drawn) [Compound 1, 6-[5-(3-Aminopropyl)−2-oxo-3-oxazolidinyl]−2H-pyrido[3,2-b]−1,4-oxazin-3(4H)-one] |  |  |  |  |  |  |  |  | IC50 (E. coli gyrase): 13200 nM; IC50 (E. coli topoisomerase IV): 27000 nM; MIC [1]: 80 to 160 µg/mL (≈ 274 to 547 µM) |
| CN1C(=O)Cc2ccc(F)c(CNCCCC3CN(c4ccc5c(n4)NC(=O)CO5)C(=O)O3)c21 (stereo not drawn) [Compound 2, 6-[5-[3-[[(6-Fluoro-2,3-dihydro-1-methyl-2-oxo-1H-indol-7-yl)methyl]amino]propyl]−2-oxo-3-oxazolidinyl]−2H-pyrido[3,2-b]−1,4-oxazin-3(4H)-one] |  |  |  |  |  |  |  |  | improvement in gyrase supercoiling and topoIV decatenation IC50 over compound 1 (E. coli gyrase): > 100 fold |
| CN1C(=O)Cc2ccc(F)c(CCNCC[C@H]3CN(c4ccc5c(n4)NC(=O)CO5)C(=O)O3)c21 [Compound 3, 6-[(5S)−5-[2-[[2-(6-fluoro-2,3-dihydro-1-methyl-2-oxo-1H-indol-7-yl)ethyl]amino]ethyl]−2-oxo-3-oxazolidinyl]−2H-pyrido[3,2-b]−1,4-oxazin-3(4H)-one] |  |  |  |  |  |  |  |  | improvement in gyrase supercoiling and topoIV decatenation IC50 over compound 1 (E. coli gyrase): > 100 fold; IC50 (E. coli topoisomerase IV): 360 nM |
| CN1C(=O)Cc2ccc(F)c(CCNC[C@H]3CN(c4ccc5c(n4)NC(=O)CO5)C(=O)O3)c21 [Compound 4, (S)−6-(5-(((2-(6-fluoro-1-methyl-2-oxoindolin-7-yl)ethyl)amino)methyl)−2-oxooxazolidin-3-yl)−2H-pyrido[3,2-b] [1,4] oxazin-3(4H)-one] |  |  |  |  |  |  |  |  | IC50 (E. coli gyrase): 36 nM; IC50 (E. coli topoisomerase IV): 57 nM |
| Cn1c(=O)ccc2ccc(F)c(CCNC[C@H]3CN(c4ncc5c(n4)NC(=O)CO5)C(=O)O3)c21 [Compound 6, 2-[(5S)−5-[[[2-(7-Fluoro-1,2-dihydro-1-methyl-2-oxo-8-quinolinyl)ethyl]amino]methyl]−2-oxo-3-oxazolidinyl]−6H-pyrimido[5,4-b][1,4]oxazin-7(8H)-one] |  |  |  |  |  |  |  |  | increase in hERG IC50 vs compound 5 (hERG K+ channel): > 10 fold |
| Cn1c(=O)cnc2ccc(F)c(CCNC[C@H]3CN(c4cnc5c(n4)NC(=O)CO5)C(=O)O3)c21 [Compound 7, 6-[(5S)−5-[[[2-(6-Fluoro-3,4-dihydro-4-methyl-3-oxo-5-quinoxalinyl)ethyl]amino]methyl]−2-oxo-3-oxazolidinyl]−2H-pyrazino[2,3-b]−1,4-oxazin-3(4H)-one] |  |  |  |  |  |  |  |  | increase in hERG IC50 vs compound 5 (hERG K+ channel): 4 fold |
